Laboratory results published in patent US9833497B2, “Human originated EGF domain proteins and use of the same” (CHENGDU SOURCEBIO LIMITED-LIABILITY COMPANY, priority 2013, dated 2017).

What was measured:
Assay type in all cases: cell-based
Serratia marcescens = experiment: MIC against Gram-negative bacteria: Serratia marcescens
Procedure, shortened: (§1)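 The recombinant human-originated EGF domain proteins were serially diluted two-fold against bacteria at 5×10^5 CFU/mL in LB medium. After shaken incubation at 37° C, the lowest concentration with no bacterial growth was recorded as the MIC.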

Aeromonas hydrophila = experiment: MIC against Gram-negative bacteria: Aeromonas hydrophila
Procedure, shortened: as §1

Pseudomonas aeruginosa = experiment: MIC against Gram-negative bacteria: Pseudomonas aeruginosa
Procedure, shortened: as §1

Enterobacter cloacae = experiment: MIC against Gram-negative bacteria: Enterobacter cloacae
Procedure, shortened: as §1

Proteus vulgaris = experiment: MIC against Gram-negative bacteria: Proteus vulgaris
Procedure, shortened: as §1

Citrobacter diversus = experiment: MIC against Gram-negative bacteria: Citrobacter diversus
Procedure, shortened: as §1

Klebsiella pneumonia = experiment: MIC against Gram-negative bacteria: Klebsiella pneumonia
Procedure, shortened: as §1

Proteus mirabilis = experiment: MIC against Gram-negative bacteria: Proteus mirabilis
Procedure, shortened: as §1

E. coli DH5α = experiment: Antibacterial activity: MIC and growth curve against E. coli DH5α in 96-well plate; conditions: minimal inhibitory concentration against E. coli DH5α; 96-well plate, 5×10^5 CFU/mL, 37° C., judged after 8 h
Procedure, shortened: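 MIC taken as lowest protein level with no bacterial growth, tracked by A600 every 30 min during 37 °C, 175 rpm culture. Two-fold protein series 50-12.5 μg/mL final, triplicate wells, against 5×10^5 CFU/mL of LB-washed mid-log cells.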

Moraxella catarrhalis = experiment: MIC against Gram-negative bacteria: Moraxella catarrhalis
Procedure, shortened: as §1

E. coli BL21 = experiment: MIC against Gram-negative bacteria: E. coli BL21
Procedure, shortened: as §1

[1] = Serratia marcescens, 96-well plate, 5×10^5 CFU/mL, 37° C., 10 h
[2] = Aeromonas hydrophila, 96-well plate, 5×10^5 CFU/mL, 37° C., 10 h
[3] = Pseudomonas aeruginosa, 96-well plate, 5×10^5 CFU/mL, 37° C., 10 h
[4] = Enterobacter cloacae, 96-well plate, 5×10^5 CFU/mL, 37° C., 10 h
[5] = Proteus vulgaris, 96-well plate, 5×10^5 CFU/mL, 37° C., 10 h
[6] = Citrobacter diversus, 96-well plate, 5×10^5 CFU/mL, 37° C., 10 h
[7] = Klebsiella pneumonia, 96-well plate, 5×10^5 CFU/mL, 37° C., 10 h
[8] = Proteus mirabilis, 96-well plate, 5×10^5 CFU/mL, 37° C., 10 h
[9] = Moraxella catarrhalis, 96-well plate, 5×10^5 CFU/mL, 37° C., 10 h
[10] = E. coli BL21, 96-well plate, 5×10^5 CFU/mL, 37° C., 10 h
[11] = 96-well plate, 5×10^5 CFU/mL, 37° C., 10 h

PRT1024 (DVDECQPSRCHPDAFCYNTPGSFTCQCKPGYQGDGFRCV; listed as Homo sapiens)
25 µg/mL: MIC (Aeromonas hydrophila; A. hydrophila, 10 h cultivation at 37° C.) | MIC (Klebsiella pneumonia; K. pneumonia, 10 h cultivation at 37° C.) | MIC (Moraxella catarrhalis; M. catarrhalis, 10 h cultivation at 37° C.)
12.5 µg/mL: MIC (Serratia marcescens; S. marcescens, 10 h cultivation at 37° C.) | MIC (Enterobacter cloacae; E. cloacae, 10 h cultivation at 37° C.) | MIC (Proteus mirabilis; P. mirabilis, 10 h cultivation at 37° C.) | MIC (E. coli BL21; E. coli BL21, 10 h cultivation at 37° C.)
50 µg/mL: MIC (Pseudomonas aeruginosa; P. aeruginosa, 10 h cultivation at 37° C.) | MIC (Proteus vulgaris; P. vulgaris, 10 h cultivation at 37° C.) | MIC (Citrobacter diversus; C. diversus, 10 h cultivation at 37° C.) | MIC (E. coli DH5α)

PRT1229 (DINECETGLAKCKYKAYCRNKVGGYICSCLVKYTLFNFLAGIIDYDHPDCY; listed as Homo sapiens)
12.5 µg/mL: MIC against S. marcescens (Serratia marcescens; [1]) | MIC against A. hydrophila (Aeromonas hydrophila; [2]) | MIC against P. aeruginosa (Pseudomonas aeruginosa; [3]) | MIC against P. vulgaris (Proteus vulgaris; [5]) | MIC against C. diversus (Citrobacter diversus; [6]) | MIC against K. pneumonia (Klebsiella pneumonia; [7]) | MIC against P. mirabilis (Proteus mirabilis; [8]) | MIC against M. catarrhalis (Moraxella catarrhalis; [9]) | MIC against E. coli BL21 (E. coli BL21; [10])
25 µg/mL: MIC against E. cloacae (Enterobacter cloacae; [4]) | MIC (E. coli DH5α)

PRT548 (CPCPLSVPSNNFAEGCVLRGGRTQCLCKPGYAGASCERCAPGFFGNPLVLGSSCQP; listed as Homo sapiens)
50 µg/mL: MIC against S. marcescens (Serratia marcescens; [11]) | MIC against P. aeruginosa (Pseudomonas aeruginosa; [11]) | MIC against C. diversus (Citrobacter diversus; [11])
12.5 µg/mL: MIC against E. cloacae (Enterobacter cloacae; [11]) | MIC against P. mirabilis (Proteus mirabilis; [11]) | MIC (E. coli DH5α)
25 µg/mL: MIC against A. hydrophila (Aeromonas hydrophila; [11]) | MIC against P. vulgaris (Proteus vulgaris; [11]) | MIC against K. pneumonia (Klebsiella pneumonia; [11]) | MIC against M. catarrhalis (Moraxella catarrhalis; [11]) | MIC against E. coli BL21 (E. coli BL21; [11])

PRT1290 (KCNPCLSNPCKNDGTCNSDPVDFYRCTCPYGFKGQDCD; listed as Homo sapiens)
50 µg/mL: MIC against P. aeruginosa (Pseudomonas aeruginosa; [3]) | MIC against E. cloacae (Enterobacter cloacae; [4]) | MIC against P. mirabilis (Proteus mirabilis; [8]) | MIC (E. coli DH5α)
12.5 µg/mL: MIC against S. marcescens (Serratia marcescens; [1]) | MIC against P. vulgaris (Proteus vulgaris; [5]) | MIC against C. diversus (Citrobacter diversus; [6]) | MIC against K. pneumonia (Klebsiella pneumonia; [7]) | MIC against E. coli BL21 (E. coli BL21; [10])
25 µg/mL: MIC against A. hydrophila (Aeromonas hydrophila; [2]) | MIC against M. catarrhalis (Moraxella catarrhalis; [9])

PRT15 (GDHPCLPNPCHGGAPCQNLEAGRFHCQCPPGRVGPTCA; listed as Homo sapiens)
12.5 µg/mL: MIC (μg/mL) A. hydrophila (Aeromonas hydrophila; [2]) | MIC (μg/mL) P. vulgaris (Proteus vulgaris; [5]) | MIC (μg/mL) K. pneumonia (Klebsiella pneumonia; [7]) | MIC (μg/mL) P. mirabilis (Proteus mirabilis; [8]) | MIC (μg/mL) M. catarrhalis (Moraxella catarrhalis; [9])
25 µg/mL: MIC (μg/mL) S. marcescens (Serratia marcescens; [1]) | MIC (μg/mL) P. aeruginosa (Pseudomonas aeruginosa; [3]) | MIC (μg/mL) C. diversus (Citrobacter diversus; [6]) | MIC (E. coli DH5α)
50 µg/mL: MIC (μg/mL) E. cloacae (Enterobacter cloacae; [4]) | MIC (μg/mL) E. coli BL21 (E. coli BL21; [10])

PRT698 (DVDECARSPPPCTYGRCENTEGSFQCVCPMGFQPNTAGSECE; listed as Homo sapiens)
12.5 µg/mL: MIC S. marcescens (Serratia marcescens; [11]) | MIC A. hydrophila (Aeromonas hydrophila; [11]) | MIC P. aeruginosa (Pseudomonas aeruginosa; [11])
50 µg/mL: MIC K. pneumonia (Klebsiella pneumonia; [11]) | MIC (E. coli DH5α) | MIC M. catarrhalis (Moraxella catarrhalis; [11])
25 µg/mL: MIC E. cloacae (Enterobacter cloacae; [11]) | MIC P. vulgaris (Proteus vulgaris; [11]) | MIC C. diversus (Citrobacter diversus; [11]) | MIC P. mirabilis (Proteus mirabilis; [11]) | MIC E. coli BL21 (E. coli BL21; [11])

PRT194 (CRSKCHGHGVCDSNRHCYCEEGWAPPDCT; listed as Homo sapiens)
12.5 µg/mL: MIC (μg/mL) S. marcescens (Serratia marcescens; S. marcescens, 10 h cultivation at 37° C., 5×10^5 CFU/mL) | MIC (μg/mL) A. hydrophila (Aeromonas hydrophila; A. hydrophila, 10 h cultivation at 37° C., 5×10^5 CFU/mL) | MIC (μg/mL) P. aeruginosa (Pseudomonas aeruginosa; P. aeruginosa, 10 h cultivation at 37° C., 5×10^5 CFU/mL) | MIC (μg/mL) E. cloacae (Enterobacter cloacae; E. cloacae, 10 h cultivation at 37° C., 5×10^5 CFU/mL) | MIC (μg/mL) C. diversus (Citrobacter diversus; C. diversus, 10 h cultivation at 37° C., 5×10^5 CFU/mL) | MIC (E. coli DH5α)
25 µg/mL: MIC (μg/mL) P. vulgaris (Proteus vulgaris; P. vulgaris, 10 h cultivation at 37° C., 5×10^5 CFU/mL) | MIC (μg/mL) K. pneumonia (Klebsiella pneumonia; K. pneumonia, 10 h cultivation at 37° C., 5×10^5 CFU/mL) | MIC (μg/mL) E. coli BL21 (E. coli BL21; E. coli BL21, 10 h cultivation at 37° C., 5×10^5 CFU/mL)
100 µg/mL: MIC (μg/mL) P. mirabilis (Proteus mirabilis; P. mirabilis, 10 h cultivation at 37° C., 5×10^5 CFU/mL) | MIC (μg/mL) M. catarrhalis (Moraxella catarrhalis; M. catarrhalis, 10 h cultivation at 37° C., 5×10^5 CFU/mL)
